Experimental data reported in patent US20230028880A1, “CD38-BINDING AGENTS AND USES THEREOF” (Biohaven Therapeutics Ltd., priority 2019, published 2023).
Where “and” joins values, the source holds several entries; their conditions need not be identical. Equal values may be shown once. *1 amine or outer side, *2 acyl side, *3 side chain or, on linkers, in order; H or OH if unused. Bridges are numbered along the chain shown (N, C = ends). Where no end group is shown, it is not given here. [ ]: non-standard residue; d: D form. d(γGlu) = O=C(O)[C@@H](CCC(=O)[*:2])N[*:1]; 12Ado = NCCCCCCCCCCCC(=O)O

Tests used:
Daudi cells = assay: Ternary binding assay: recruitment of PE-labeled human IgG1k to Daudi cells (flow cytometry, MFI); format: cell-based; conditions: duplicate columns
Protocol: Various technologies can be utilized to assess and/or characterize recruitment of antibodies to target cells, e.g., cancer cells. One such assay is a ternary binding assay. An exemplary protocol is described herein. Compounds were diluted in DMSO (MP 191418) to 1000× the starting concentration used in the assay into a 96 well polypropylene plate (Corning 3357). They were then serially diluted in ½ log increments to generate 8-12 concentrations in DMSO (assay dependent). These DMSO stocks were then step diluted 1/100 into PBS (VWR Cat. #20012043). Step diluted compound range was then added into the polypropylene assay plate 1/10 the volume of the assay volume. Daudi (ATCC CCL-213), a non-adherent cell line, were counted and centrifuged and resuspended at a concentration of 100,000 cells per 90 ul in Flow buffer: 1% BSA (American Bio AB01088-00100); 0.5 mM EDTA (VWR 45001-122); PBS (VWR Cat. #20012043) with 11.1 ug/mL human IgG1k Phycoerythrin labeled (SouthernBiotech #0151K-09 PE). The cells were then added into the polypropylene plate with the step diluted compounds and incubated at 37° C. for 30 min. At the end of the incubation, the cells were centrifuged and washed 2× with How buffer containing 0.5% Tween 20 (BP337-500). Samples were analyzed on a BD FacsCelesta. Mean fluorescence was analyzed using Graphpad Prism and curves were fit using log(inhibitor) vs. response—Variable slope (four parameters).

[1] = system: Effector cells (ADCC reporter cells) with Daudi cells; assay: ADCC reporter assay: Daudi cells, IVIG and ADCC reporter effector cells (luciferase, RLU); format: cell-based; conditions: IVIG; for Luminescence, ADCC reporter assay: 18 h, duplicate columns
Protocol: Daudi (ATCC CCL-213) cells were resuspended in Opti-MEM (Thermo Fisher Scientific #31985070), counted (Life Technologies Countless II cell counter) and plated (5,000 cells in 25 uL/well; Corning plates: 3917). Compounds w diluted in DMSO (MP 191418) to 1000× the starting concentration used in the assay into a 96 well polypropylene plate (Corning 3357). They were then serially diluted in ½ log increments to generate 8 concentrations in DMSO (assay dependent). These DMSO stocks were then step diluted 1/250 into Opti-MEM. Step diluted compound range was then added into the polypropylene assay plate 25 uL/well. The human antibody solution (Grifols IVIG Fleogogamma #61953-0005-2) was diluted to 40 ug/mL and added 25 uL/well. Effector cells (ADCC reporter cells—Promega kit: G7018) were added 37,500 in 25 uL/well. The assay was then incubated 18 h at 37° C. Following the induction period, the plate was equilibrated to 25° C. followed the addition of the luciferase substrate (75 uL/well, 1 vial in 10 mL of Bio-Glo assay buffer, Promega kit: G7018). The luminescence was measured (Biotek Synergy H1 microplate reader).

[2] = biological target: CD38 on Daudi cells (human) (UniProt P28907); assay: ternary binding, flow cytometry: Daudi cells + PE human IgG1k

| Molecule | MFI, recruitment of PE-labeled human IgG1k to Daudi cells (Daudi cells; compound 0.03 nM) | MFI, recruitment of PE-labeled human IgG1k to Daudi cells (Daudi cells; compound 0.1 nM) | MFI, recruitment of PE-labeled human IgG1k to Daudi cells (Daudi cells; compound 0.3 nM) | MFI, recruitment of PE-labeled human IgG1k to Daudi cells (Daudi cells; compound 1 nM) | MFI, recruitment of PE-labeled human IgG1k to Daudi cells (Daudi cells; compound 3 nM) | MFI, recruitment of PE-labeled human IgG1k to Daudi cells (Daudi cells; compound 10 nM) | MFI, recruitment of PE-labeled human IgG1k to Daudi cells (Daudi cells; compound 30 nM) | MFI, recruitment of PE-labeled human IgG1k to Daudi cells (Daudi cells; compound 100 nM) | MFI, recruitment of PE-labeled human IgG1k to Daudi cells (Daudi cells; compound 300 nM) | MFI, recruitment of PE-labeled human IgG1k to Daudi cells (Daudi cells; compound 1000 nM) | MFI, recruitment of PE-labeled human IgG1k to Daudi cells (Daudi cells; compound 3000 nM) | Luminescence, ADCC reporter assay ([1]; compound 0.3 nM) | Luminescence, ADCC reporter assay ([1]; compound 1 nM) | Luminescence, ADCC reporter assay ([1]; compound 3 nM) | Luminescence, ADCC reporter assay ([1]; compound 10 nM) | Luminescence, ADCC reporter assay ([1]; compound 30 nM) | Luminescence, ADCC reporter assay ([1]; compound 100 nM) | Luminescence, ADCC reporter assay ([1]; compound 300 nM) | Luminescence, ADCC reporter assay ([1]; compound 1000 nM) | further results |
| --- | --- | --- | --- | --- | --- | --- | --- | --- | --- | --- | --- | --- | --- | --- | --- | --- | --- | --- | --- | --- |
| CCCCC[C@@H]1NC(=O)[C@H](CCCNC(=N)N)NC(=O)[C@H](C)NC(=O)CSC[C@@H](C(=O)NCCOCCOCCOCCOCCOCCOCCOCCOCCC(=O)NCCOCCOCCOCCOCCOCCOCCOCCOCCC(=O)N[C@@H](CC(=O)O)C(=O)N[C@H]2CSSC[C@@H](C(=O)N[C@H](C(=O)O)[C@@H](C)O)NC(=O)[C@H](Cc3c[nH]c4ccccc34)NC(=O)[C@H](C(C)C)NC(=O)[C@H](CC(C)C)NC(=O)[C@H](CCC(=O)O)NC(=O)CNC(=O)[C@H](CC(C)C)NC(=O)[C@H](Cc3c[nH]cn3)NC(=O)[C@H](Cc3c[nH]c4ccccc34)NC(=O)[C@H](C)NC2=O)NC(=O)[C@H](CC(=O)O)NC(=O)[C@H](CCCCC)NC(=O)[C@H](Cc2ccc(-c3ccccc3)cc2)NC(=O)[C@H](CC(C)C)NC(=O)[C@H](C(C)C)NC(=O)[C@H](CCC(N)=O)NC(=O)[C@H](CC(=O)O)NC(=O)[C@H](Cc2c[nH]cn2)NC(=O)[C@H](Cc2ccc(O)cc2)NC1=O [I-41] | 4489 and 2739 | 7612 and 4790 | 3076 and 2422 | 5751 and 3841 | 5283 and 6064 | 9033 and 5065 | 10036 and 10734 | 19188 and 14043 | 23096 and 16482 | 13982 and 11893 | 18339 and 21903 | 4814 RLU and 4964 RLU | 6793 RLU and 6656 RLU | 15011 RLU and 15516 RLU | 26140 RLU and 28413 RLU | 35410 RLU and 36310 RLU | 40904 RLU and 39344 RLU | 38409 RLU and 39619 RLU | 29516 RLU and 26828 RLU | – |
| CCCCC[C@@H]1NC(=O)[C@H](CCCNC(=N)N)NC(=O)[C@H](C)NC(=O)CSC[C@@H](C(=O)NCCOCCOCCOCCOCCOCCOCCOCCOCCC(=O)NCCOCCOCCOCCOCCOCCOCCOCCOCCC(=O)N[C@@H](CC(=O)O)C(=O)N[C@H]2CSSC[C@@H](C(=O)N[C@H](C(=O)O)[C@@H](C)O)NC(=O)[C@H](Cc3c[nH]c4ccccc34)NC(=O)[C@H](C(C)C)NC(=O)[C@H](CC(C)C)NC(=O)[C@H](CCC(=O)O)NC(=O)CNC(=O)[C@H](CC(C)C)NC(=O)[C@H](Cc3c[nH]cn3)NC(=O)[C@H](Cc3c[nH]c4ccccc34)NC(=O)[C@H](C)NC2=O)NC(=O)[C@H](CC(=O)O)NC(=O)[C@H](CCCCC)NC(=O)[C@H](Cc2ccc(-c3ccccc3)cc2)NC(=O)[C@H](CC(C)C)NC(=O)[C@H](C(C)C)NC(=O)[C@H](CC(N)=O)NC(=O)[C@H](CC(=O)O)NC(=O)[C@H](Cc2c[nH]cn2)NC(=O)[C@H](Cc2ccc(O)cc2)NC1=O [I-42] | 7077 and 5990 | 5737 and 4704 | 3879 and 4284 | 4981 and 6900 | 6000 and 5101 | 6189 and 11302 | 9700 and 15077 | 16690 and 17157 | 14190 and 18622 | 20476 and 15023 | 13519 and 15909 | 4468 RLU and 4661 RLU | 13795 RLU and 13686 RLU | 20721 RLU and 20652 RLU | 32317 RLU and 32373 RLU | 36909 RLU and 40202 RLU | 40344 RLU and 39296 RLU | 39826 RLU and 37835 RLU | 27516 RLU and 28425 RLU | EC50 ([1]; ADCC reporter assay): 1.4 nM |
| [d(γGlu)][d(γGlu)][dE](12Ado)[d(γGlu)][d(γGlu)]GGDCAWHLGELVWCT (peptide, part only; not given: PEG8 unit, part only, disulfide 9-19; not fully specified (N-terminus); also: N-terminal PEG8 joins a further peptide chain not given here) [I-28] | – | – | – | – | – | – | – | – | – | – | – | – | – | – | – | – | – | – | – | MFI at 1 nM [2]: 216 and 385; MFI at 3 nM [2]: 400 and 751; MFI at 10 nM [2]: 1970 and 1940; MFI at 30 nM [2]: 4030 and 4740; MFI at 100 nM [2]: 5110 and 5380; MFI at 300 nM [2]: 6240 and 5320; MFI at 1000 nM [2]: 5150 and 5380; MFI at 3000 nM [2]: 5220 and 5330 |
